Experimental data published in patent US7695933B2, “SM38 nucleic acid molecules” (priority 2000, dated 2010).
Where “and” joins values, the source holds several entries; their conditions need not be identical. Equal entries are not always repeated. Where two headings read alike, the source gives them in different places.

Tests used:
bone marrow neutrophils [1] = test: Intracellular calcium measurements by flow cytometry (Fluo-3/Fura Red); type: cell-based, mouse
Procedure: Purified bone marrow neutrophils were resuspended in cell loading media (HBSS with Ca2^+ and Mg2^++1% FBS+4 mM probenecid) at 1×10^7 cells/ml. The cells were incubated at 37° C. for 30 min with the fluorescent dyes Fluo-3 AM (4 μg/ml) and Fura Red AM (10 μg/ml) (Molecular Probes, Eugene Oreg.) and then washed twice and resuspended in cell loading medium or calcium-free medium at 1×10^6 cells/ml. In some experiments, cells were permeabilized in 5 μM digitonin in calcium-free media. […] The accumulation of [Ca^2+]i in individual cells was assessed by flow cytometry measuring the fluorescence emission of Fluo-3 in the FL-1 channel and Fura-Red in the FL-3 channel. Data was analyzed using FlowJo 3.2 (Tree Star, Inc. San Carlos, Calif.). The relative [Ca2^+]i was expressed as the ratio between Fluo-3 and Fura Red mean fluorescence intensity over time.

Mammalian cyclases = conditions: cited from earlier work
SM38 = test: Enzyme assays and kinetics with purified recombinant soluble SM38; type: biochemical, Schistosoma mansoni; conditions: for Km / Vmax (specific activity) / kcat: 37° C., 10 mM potassium phosphate buffer pH 7.4, SM38 from Pichia pastoris
Procedure: The enzyme was incubated with NAD^+ (200 μM) in buffer A (1 ml final volume) until the reaction reached 50% completion. The enzyme was eliminated by centrifugation for 10 min at 5000×g on ultrafiltration units (Vivaspin 2, Vivascience). […] The cycling reaction was then allowed to proceed in the same buffer in the presence of 0.8% ethanol, 10 mM nicotinamide, 40 μg/ml BSA, 20 μg/ml diaphorase (treated with charcoal), 20 μg/ml alcohol dehydrogenase, 10 μM FMN and 20 μM resazurin. The increase in resorufin fluorescence (excitation at 544 nm and emission at 590 nm) was measured every minute for 2 h using a fluorescence plate reader (FluoStar from BMG Labtechnologies Inc).
Aliquots were removed at different time points, treated as described above and analyzed by HPLC on a C18 column.
(§1) The transglycosidation of NADP^+ was measured by incubating recombinant soluble SM38 with 1 mM NADP^+ and 20 to 40 mM nicotinic acid at 37° C. for 20 min in a 10 mM potassium phosphate buffer, pH 6.0 or 7.4 (final volume 500 μl). The reaction mixture was analyzed by HPLC on an ion-exchange column (see below). HPLC analysis of the reaction products were performed on aliquots on a C18 column (see below).
The assays were conducted at 37° C. in buffer A in the presence of soluble recombinant enzyme using eight different substrate concentrations. […] Kinetic parameters were determined from the plots of the initial rates as a function of substrate concentration, according to Michaelis-Menten kinetics, using a non-linear regression program (GraphPad, Prism).

bone marrow neutrophils [2] = test: In vitro transwell chemotaxis assay; type: cell-based, mouse; conditions: for ability of neutrophils to chemotax to IL-8: WT neutrophils pre-treated with agent, IL-8 in bottom chamber
Procedure: Bone marrow neutrophils were purified (95% purity) by positive selection using biotinylated GR-1 (PharMingen) and MACS Streptavidin Microbeads (Miltenyi Biotec, Auburn Calif.). Chemotaxis assays (Falk et al., 1980 J. Immuno. Methods 33:239-247) were performed using 24-well transwell plates with a 3 μm pore size polycarbonate filter (Costar, Cambridge, Mass.). Medium (HBSS+Ca2^++Mg2^+), fMLP (1 μM, Sigma, St. Louis, Mo.), or IL-8 (100 nM, Sigma) was placed in the lower and/or upper chamber in a checkerboard format. 1×10^5 neutrophils were loaded in the upper chamber and the plates were incubated at 37° C. for 45 min. The transmigrated cells were collected from the lower chamber, fixed and counted on the flow cytometer (FACS Calibur, Becton Dickinson, San Jose Calif.). To determine the absolute number of cells in each sample, a standard number of […] size fluorescent microspheres (Polysciences, Inc. Warrington, Pa.) was added to each tube and counted along with the cells. The total number of transmigrated cells=the number of counted neutrophils×total number of beads/beads counted. […]

[3] = tested on: membrane-associated NAD^+ glycohydrolase/NGD^+ cyclase expressed by adult S. mansoni worms; test: NAD+ glycohydrolase / NGD+ cyclase activity of adult worm membrane microsomes
Procedure: The enzyme was suspended in 10 mM potassium phosphate buffer, pH 7.4 (buffer A) and incubated at 37° C. with substrate (200 μl final volume). At selected times, aliquots (50 μl) were removed and enzyme activity was stopped by adding ice-cold perchloric acid (2% final concentration). After neutralization with 3.5 M K2CO3, precipitated proteins were removed by centrifugation. Product formation was then monitored by HPLC as described below. […] Product formation was then monitored by HPLC on a C18 column as described below.
Product analysis was performed by HPLC on 300×3.9 mm μBondapack C18 column (Waters Assoc., Milford Mass.). […] The elution was performed at a flow rate of 1 ml/min with a non-linear gradient starting with 100% solvent A (water). […] Peaks were identified by comparison with authentic samples and areas obtained from UV recordings were normalized using the molar extinction coefficients of the reaction products.
To prepare membrane fractions from adult S. mansoni worms, 2 g of worms were disrupted at 4° C. with a potter in 10 mM potassium phosphate buffer (pH 7.4) containing 1 mM EDTA and 0.1 mM phenylmethylsulfonyl fluoride (PMSF) as protease inhibitors. The homogenate was centrifuged at 10,000×g for 15 min and the post-mitochondrial supernatant was centrifuged at 100,000×g for 60 min to obtain the membrane microsomal fraction. […]

Aplysia cyclase = Aplysia cyclase (Aplysia californica, UniProt P29241); conditions: cited from earlier work
[4] = Transglycosidation (pyridine base exchange) by cyclase family enzymes; type: biochemical; conditions: SM38
Procedure: as §1

[5] = other cyclase family members; cited from earlier work

Chain of Aplysia cyclase (P29241 25-282): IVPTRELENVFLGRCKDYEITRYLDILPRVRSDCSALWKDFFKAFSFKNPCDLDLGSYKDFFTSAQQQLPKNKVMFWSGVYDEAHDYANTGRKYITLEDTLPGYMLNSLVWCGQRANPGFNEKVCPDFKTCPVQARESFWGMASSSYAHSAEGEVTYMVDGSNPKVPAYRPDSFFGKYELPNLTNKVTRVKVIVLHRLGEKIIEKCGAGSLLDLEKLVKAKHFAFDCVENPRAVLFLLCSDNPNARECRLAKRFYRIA

**Q.** With ryanodine as the molecule, how does the “[Ca2+]i after stimulation” value (bone marrow neutrophils [1]; neutrophils permeabilized in calcium-free buffer) read?
**A.** small, but reproducible, increase

**Q.** With `NNC(=O)c1ccncc1` [INH, isoniazid] as the molecule, how does the “Sensivity to INH” value (Mammalian cyclases) read?
**A.** yes/no

**Q.** And the “Sensivity to INH” value (SM38; SM38)?
**A.** INH-insensitive and no

**Q.** With `O=C(O)CN(CCOCCOCCN(CC(=O)O)CC(=O)O)CC(=O)O` [EGTA] as the molecule, how does the “ability of neutrophils to chemotax to IL-8” value (“ability of neutrophils” below) (bone marrow neutrophils [2]) read?
**A.** absolutely no effect

**Q.** For `NC(=O)c1ccc[n+]([C@@H]2O[C@H](COP(=O)([O-])OP(=O)(O)OC[C@H]3O[C@@H](n4cnc5c(N)ncnc54)[C@H](O)[C@@H]3O)[C@@H](O)[C@H]2O)c1` [NAD^+], which “specific activity of non-treated membrane microsomes” value ([3]; 14C-labeled NAD+, ADPR production by HPLC) is on record?
**A.** 36 nmol/min/mg protein

**Q.** And the “Hydrolysis of NAD^+” value (Mammalian cyclases)?
**A.** yes

**Q.** And the “Methanolysis of NAD^+” value (Mammalian cyclases)?
**A.** yes

**Q.** What about the “Hydrolysis of NAD^+” value (Aplysia cyclase) of the same molecule?
**A.** very low

**Q.** And the “Methanolysis of NAD^+” value (Aplysia cyclase)?
**A.** very low

**Q.** What about the Km (SM38) of the same molecule?
**A.** 38.5 ± 6.8 µM

**Q.** And the “Vmax (specific activity)” value (SM38)?
**A.** 13.2 µmol/min/mg and 13.2 ± 2.6 µmol/min/mg

**Q.** What about the kcat (SM38) of the same molecule?
**A.** 6.51 ± 1.28 s⁻¹

**Q.** What about the “Hydrolysis of NAD^+” value (SM38; SM38) of the same molecule?
**A.** yes

**Q.** What about the “Methanolysis of NAD^+” value (SM38; SM38) of the same molecule?
**A.** yes

**Q.** Which “block of ryanodine-induced increase in [Ca2+]” value (bone marrow neutrophils [1]; permeabilized neutrophils, calcium-free buffer) does the source give for `N.N.N.N.N.N.N.N.N.N.N.N.N.N.[Cl-].[Cl-].[Cl-].[Cl-].[Cl-].[Cl-].[O-2].[O-2].[Ru+3].[Ru+3].[Ru+4]` [ruthenium red] here?
**A.** blocked

**Q.** Which Km (SM38) does the source give for `NC(=O)c1ccc[n+]([C@@H]2O[C@H](COP(=O)([O-])OP(=O)(O)OC[C@H]3O[C@@H](n4cnc5c(N)ncnc54)[C@H](OP(=O)(O)O)[C@@H]3O)[C@@H](O)[C@H]2O)c1` [NADP^+] here?
**A.** 13.7 ± 2.9 µM

**Q.** What about the “Vmax (specific activity)” value (SM38) of the same molecule?
**A.** 39.2 ± 1.6 µmol/min/mg

**Q.** And the kcat (SM38)?
**A.** 19.34 ± 0.79 s⁻¹

**Q.** What about the “catalytic efficiency (kcat/Km) relative to NAD+” value (SM38; NADP+ versus NAD+) of the same molecule?
**A.** 8 fold

**Q.** What does the source list for cyclic GDP-ribose [cGDPR]?
**A.** Formation of cGDPR (Mammalian cyclases): yes; Formation of cGDPR (Aplysia cyclase): yes; Formation of cGDPR (SM38; SM38): yes

**Q.** Which cGDPR/GDPR ratio ([3]; membrane microsomes incubated with NGD+) does the source give for `NC(=O)c1ccc[n+]([C@@H]2O[C@H](COP(=O)([O-])OP(=O)(O)OC[C@H]3O[C@@H](n4cnc5c(=O)[nH]c(N)nc54)[C@H](O)[C@@H]3O)[C@@H](O)[C@H]2O)c1` [NGD^+, nicotinamide guanine dinucleotide] here?
**A.** 12

**Q.** And the Km (SM38)?
**A.** 23.4 µM

**Q.** And the “Vmax (specific activity)” value (SM38)?
**A.** 4.8 µmol/min/mg and 4.8 ± 0.1 µmol/min/mg

**Q.** What about the kcat (SM38) of the same molecule?
**A.** 2.37 ± 0.05 s⁻¹

**Q.** And the cyclization/hydrolysis ratio (SM38; NGD+ as substrate, cGDPR vs GDPR)?
**A.** approximately 6.0

**Q.** For `NC(=O)c1ccc[n+]([C@@H]2O[C@H](COP(=O)([O-])OP(=O)(O)OC[C@H]3O[C@@H](n4cnc5c(N)ncnc54)[C@H](O)[C@@H]3O)[C@@H](O)[C@H]2F)c1` [araF-NAD^+], which “Inhibition by araF-NAD^+ (Ki)” value (Mammalian cyclases) is on record?
**A.** Ki nM range

**Q.** And the IC50 (Aplysia cyclase; read-out: Inhibition by araF-NAD^+ (IC50))?
**A.** > 10 µM

**Q.** And the IC50 (SM38; SM38, read-out: Inhibition by araF-NAD^+ (IC50))?
**A.** > 10 µM

**Q.** For `NC(=O)c1ccc[n+]([C@@H]2O[C@H](COP(=O)([O-])OP(=O)(O)OC[C@H]3O[C@@H](n4c(Br)nc5c(N)ncnc54)[C@H](O)[C@@H]3O)[C@@H](O)[C@H]2O)c1` [N(8-Br-A)D^+, nicotinamide 8-bromoadenine dinucleotide], which “chemotaxis of CD38KO neutrophils to either fMLP or IL-8” value (bone marrow neutrophils [2]; CD38KO neutrophils pre-treated) is on record?
**A.** no effect

**Q.** What about the “ability of neutrophils” value (bone marrow neutrophils [2]) of the same molecule?
**A.** no effect

**Q.** What about the “neutrophil chemotaxis to fMLP” value (bone marrow neutrophils [2]; WT neutrophils pre-treated, fMLP in bottom chamber) of the same molecule?
**A.** severely reduced

**Q.** And the “entry of extracellular calcium in fMLP-treated neutrophils” value (bone marrow neutrophils [1]; WT neutrophils pretreated)?
**A.** inhibited

**Q.** For `Nc1ncnc2c1ncn2[C@@H]1O[C@H](COP(=O)(O)OP(=O)(O)OCC2OC([n+]3cccc(C(=O)[O-])c3)C(O)C2O)[C@@H](O)[C@H]1OP(=O)(O)O` (stereo in doubt) [NAADP^+, nicotinic acid adenine dinucleotide phosphate], which “reduction in NAADP+ formation at pH 7.4 compared to pH 6.0” value (SM38; transglycosidation of NADP+ with nicotinic acid) is on record?
**A.** 3 fold

**Q.** With `N=c1c2nc(Br)n3c2ncn1C1OC(COP(=O)(O)OP(=O)(O)OCC2OC3C(O)C2O)C(O)C1O` (stereo not drawn) [8-Br-cADPR] as the molecule, how does the “ability of neutrophils” value (bone marrow neutrophils [2]) read?
**A.** absolutely no effect

**Q.** And the “release of intracellular calcium and influx of extracellular calcium” value (bone marrow neutrophils [1]; WT cells preincubated with increasing concentrations, stimulated with fMLP)?
**A.** reduced in a dose-dependent fashion

**Q.** And the “[Ca2+]i of IL-8 stimulated neutrophils” value (bone marrow neutrophils [1]; WT or CD38KO neutrophils, IL-8)?
**A.** absolutely no effect

**Q.** And the “cADPR-induced intracellular calcium release after pre-treatment” value (bone marrow neutrophils [1]; permeabilized neutrophils, calcium-free buffer, stimulated with cADPR)?
**A.** No calcium release

**Q.** What about the “block of accumulation of intracellular free calcium mediated by thapsigargin” value (bone marrow neutrophils [1]; thapsigargin-stimulated neutrophils) of the same molecule?
**A.** unable to block

B1: SM38: CD38 homologue from the parasitic flatworm Schistosoma mansoni (protein)
chain: RHEVIFHNLLIQIMMNVILFLTLSNIFVFNSAQHQINLLSEIVQSRCTQWKVEHGATNISCSEIWNSFESILLSTHTKSACVMKSGLFDDFVYQLFELEQQQQQRHHTIQTEQYFHSQVMNIIRGMCKRLGVCRSLETTFPGYLFDELNWCNGSLTGNTKYGTVCGCDYKSNVVHAFWQSASAEYARRASGNIFVVLNGSVKAPFNENKTFGKIELPLLKHPRVQQLTVKLVHSLEDVNNRQTCESWSLQELANKLNSVHIPFRCIDDPLEFRHYQCIENPGKQLCQFSASTRSNVETLLILFPLVICLTFYTSMN
**Q.** With B1 as the molecule, how does the Transglycosidation [4] read?
**A.** yes

B2: Aplysia cyclase: invertebrate Aplysia ADP-ribosyl cyclase enzyme (protein)
chain: MSPVAIVACVCLAVTLTRISPSEAIFPTPELQNVFLGRCKDYEITRYLTILPRVKSDCRALWTNFFKAFSFKAPCNLDLGSYKDFFQRAQQTLPKNKVMFWSGVYDEAHDFADDGRKYITLEDTLPGYMLNSLVWCGQRDKPGFNQKVCPDFKDCPVQARESFWGTASSSYAHSAEGDVTYMVDGSNPKVPAYRPDSFFGKYELPNLTNKVTKVKVIVLHQLGQKIIERCGAGSLLDLEMVVKAKKFGFDCVENPKSVLFLLCADNPNARECQLAKRYYRIA
modifications: A. californica
notes: invertebrate Aplysia ADP-ribosyl cyclase enzyme
**Q.** Which Transglycosidation [5] does the source give for B2 here?
**A.** yes
